Each structure is given as a SMILES string.

Regarding `O=C(Cc1ccccc1)N1CCCCC1`, the log partition coefficient (logP) came to 2.44.

In turn, `O=C(CC1CCCCC1)N1CCCCC1` yielded a logP of 3.2.

`CCNC(=O)c1ccccc1OCC` registered a logP of 2.4.

In turn, `CCNC(=O)c1ccccc1Cl` had a logP of 0.95.

`Cc1ccc(C(=O)N2CCCCC2)cc1` displayed a logP of 2.8.

In turn, `CN(C)C(=O)c1ccccc1` displayed a logP of 1.2.

`Cc1cccc(C(=O)N2CCCCC2)c1` came in with a logP of 2.6.

For `CCN(CC)C(=O)c1ccccc1`, the logP worked out at 1.8.

For `CCN(CC)C(=O)c1cccc(C)c1`, the lipophilicity (logP) amounted to 2.34.

As for `O=C(c1ccccc1Cl)N1CCCCC1`, the logP was found to be 2.8.

As to `CCN(CC)C(=O)CC1CCCCC1`, the logP stood at 3.12.

In the case of `CCNC(=O)c1ccc(OC)cc1`, the logP was 1.14.

Consider `CN(C)C(=O)CC1CCCCC1`, for which the logP was 2.19.

`CCNC(=O)c1ccc(C)cc1` had a logP of 1.38.

Compound `Cc1ccc(C(=O)N(C)C)cc1` came in with a logP of 1.72.

`CCN(CC)C(=O)c1ccc(OC)cc1` registered a logP of 2.5.

For the compound `CCN(CC)C(=O)c1ccc(C)cc1`, the logP was 2.38.

Regarding `CCNC(=O)CC1CCCCC1`, the logP was determined as 2.28.

`CCNC(=O)Cc1ccccc1` gave a logP of 1.

For `Cc1cccc(C(=O)N(C)C)c1`, the logP turned out to be 1.6.

Consider `Cc1cccc(C(=O)N(C(C)C)C(C)C)c1`, for which the logP turned out to be 3.

`Cc1ccc(C(=O)N(C(C)C)C(C)C)cc1` showed a logP of 2.5.

Take `CC(C)N(C(=O)c1ccccc1Cl)C(C)C`: the logP was found to be 3.

For `CCOc1ccccc1C(=O)N(CC)CC`, the logP is 2.5.

As to `CCN(CC)C(=O)c1ccccc1Cl`, the logP is 2.1.

Regarding `COc1ccc(C(=O)N2CCCCC2)cc1`, the log partition coefficient (logP) came to 2.4.

`CC(C)N(C(=O)Cc1ccccc1)C(C)C` gave a logP of 3.1.

Compound `CN(C)C(=O)Cc1ccccc1` showed a logP of 1.48.

`COc1ccc(C(=O)N(C(C)C)C(C)C)cc1` displayed a logP of 2.8.

`CC(C)N(C(=O)c1ccccc1)C(C)C` came in with a logP of 2.5.

Turning to `CN(C)C(=O)c1ccccc1Cl`, the lipophilicity (logP) turned out to be 1.54.

On to `CCNC(=O)c1cccc(C)c1`, for which the logP was 1.32.

In turn, `CCN(CC)C(=O)Cc1ccccc1` registered a logP of 2.4.

`CCOc1ccccc1C(=O)N(C(C)C)C(C)C` registered a logP of 3.

`CCOc1ccccc1C(=O)N1CCCCC1`: the logP was found to be 2.6.

In turn, `O=C(c1ccccc1)N1CCCCC1` came in with a logP of 2.2.

The record behind these values is the SangsterLogP compilation.
